Data from patent US8153658B2, “Piperidine derivative or salt thereof” (Astellas Pharma, Inc., priority 2006, dated 2012).
Structures can show the parent of a compound that is named as a salt.

Experiments:
human CaSR = molecular target: T1, human CaSR (Homo sapiens, UniProt P41180); assay: Human calcium sensing receptor (CaSR) agonism test (Fluo-3 / FLIPR); assay type: cell-based; details: HEK 293 cell stably expressing human CaSR; 0.5 mM Ca2+; 2 mM Ca2+ group = 100%; read-out: EC50 (compound concentration showing 50% human CaSR agonistic activity)
T1 construct: a human CaSR open reading frame (ORF) was contained in the pcDNA3.1/Zeo(+) vector; expressed in transfected cells
T1 sequence (P41180 20-1078): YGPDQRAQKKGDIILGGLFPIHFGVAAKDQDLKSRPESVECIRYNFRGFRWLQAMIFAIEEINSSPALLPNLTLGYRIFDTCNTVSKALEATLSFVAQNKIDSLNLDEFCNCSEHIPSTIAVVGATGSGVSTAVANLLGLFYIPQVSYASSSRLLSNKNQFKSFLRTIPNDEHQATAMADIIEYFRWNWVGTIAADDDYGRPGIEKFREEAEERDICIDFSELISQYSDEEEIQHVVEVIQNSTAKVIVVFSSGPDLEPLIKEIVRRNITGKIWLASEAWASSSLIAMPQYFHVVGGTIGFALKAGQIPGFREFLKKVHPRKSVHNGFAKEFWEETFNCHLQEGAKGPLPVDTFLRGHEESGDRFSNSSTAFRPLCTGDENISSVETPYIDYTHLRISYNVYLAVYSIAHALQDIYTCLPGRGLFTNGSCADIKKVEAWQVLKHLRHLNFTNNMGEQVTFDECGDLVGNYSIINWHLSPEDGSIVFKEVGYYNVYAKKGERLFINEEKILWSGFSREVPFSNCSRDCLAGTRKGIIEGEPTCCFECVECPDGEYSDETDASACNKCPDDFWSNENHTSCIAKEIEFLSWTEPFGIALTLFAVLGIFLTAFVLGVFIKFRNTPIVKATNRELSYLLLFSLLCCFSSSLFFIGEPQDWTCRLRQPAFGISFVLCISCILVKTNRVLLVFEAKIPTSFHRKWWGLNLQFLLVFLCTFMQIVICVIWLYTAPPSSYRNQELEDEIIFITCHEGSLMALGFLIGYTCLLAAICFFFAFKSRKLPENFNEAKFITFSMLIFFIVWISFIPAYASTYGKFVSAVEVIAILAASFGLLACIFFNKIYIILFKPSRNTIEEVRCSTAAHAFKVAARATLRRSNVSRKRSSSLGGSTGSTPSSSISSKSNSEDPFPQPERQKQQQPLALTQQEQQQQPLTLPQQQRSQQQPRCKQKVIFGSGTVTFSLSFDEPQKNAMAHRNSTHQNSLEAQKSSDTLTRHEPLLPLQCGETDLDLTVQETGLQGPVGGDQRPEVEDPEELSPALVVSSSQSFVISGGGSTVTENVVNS
From the text: Test 1. Human calcium sensing receptor (CaSR) agonism test
1) Preparation of Human CaSR Expression Vector
A DNA fragment coding for human CaSR was cloned in the standard method.
Illustratively, using 203 to 2387 of NM_000388 as a DNA fragment D4, and 2210 to 3633 as a DNA fragment B2, they were amplified using a human kidney cDNA (manufactured by Invitrogen) as the template and using a DNA polymerase (a registered trade name: Pyrobest, manufactured by Takara Bio), and respectively cloned into a pCR2.1 vector using a pCR2.1-Topo vector (manufactured by Invitrogen). Next, the DNA fragments prepared by digesting the pCR2.1-D4 with SpeI and XbaI were inserted into the same sites of pcDNA3.1/Zeo(+) vector. Successively, the fragments prepared by digesting pCR2.1-B2 with SacI and XbaI were inserted into the SacI and XbaI sites of previously prepared pcDNA3.1/Zeo(+)-D4(SpeI-XbaI), thereby obtaining a human CaSR expression vector pcDNA3.1/Zeo(+)-hCaSR in which a human CaSR open reading frame (ORF) was contained in the pcDNA3.1/Zeo(+) vector.
2) Preparation of Human CaSR Expression Cell
The human CaSR expression vector was transferred into a HEK 293 cell using a transfection reagent (registered trademark: FuGene 6, manufactured by Roche Diagnostics). After the gene transfer, this was cultured in a DMEM (manufactured by Invitrogen) medium containing 40 μg/ml Zeocin (registered trademark, manufactured by Invitrogen) and a 10% fetal bovine serum at 37° C. for 2 weeks in the presence of 5% CO2, thereby obtaining Zeocin-resistant clones. A human CaSR stably expressing HEK 293 clone was obtained from these clones by selection using the responsiveness to extracellular Ca^2+ as an index.
3) Human CaSR Agonism Test
The HEK 293 cell stably expressing human CaSR was inoculated into a poly-D-lysine-coated black clear bottom 96 well plate (manufactured by BD Biosciences). Hanks' balanced salt solution (HBSS) (Ca^2+ (−), Mg^2+ (−), manufactured by Invitrogen) containing a 20 mM HEPES (2-[4-(2-hydroxyethyl)-1-piperazinyl]ethanesulfonic acid) buffer (pH 7.4), 2.5 mM of probenecid (manufactured by Sigma), and 0.1% of bovine serum albumin was prepared as a washing buffer. After the inoculation and the subsequent overnight culturing, the medium was discarded, the washing buffer supplemented with 1 mM CaCl2 and 10 μM Fluo-3 AM (trade name, manufactured by DOJINDO) was added thereto in 100 μl per well portions, and then the incubation was carried out at 37° C. for 1 hour in the presence of 5% CO2. This was washed twice with 200 μl of the washing buffer, replaced by 100 μl of the washing buffer supplemented with 0.5 mM CaCl2 and allowed to stand still for 10 minutes, and then the responsiveness to each compound to be evaluated was detected using a plate reader for fluorometry image analysis use (registered trademark: FLIPR, manufactured by Molecular Devices). In this connection, the compound to be evaluated was used by optionally diluting with the washing buffer supplemented with 0.5 mM Ca^2+.
The human CaSR agonistic activity strength of each compound to be evaluated was calculated by defining the solvent group as 0% and the 2 mM of Ca^2+ in the final concentration group as 100%, and the compound concentration showing 50% activity (EC50) was calculated from a concentration-activity curve by the method of least squares.

[1] = Measurement of rat plasma calcium concentration; assay type: in vivo; details: normal male rats, single oral administration 3 mg/kg, 2 hours after administration, read-out: Rat plasma calcium concentration reducing ratio (%) 2 hours after administration (3 mg/kg)
Protocol: Test 2. Measurement of Rat Plasma Calcium Concentration and Plasma PTH Concentration
The compounds of the present invention were administered to rats, and their influences upon the plasma calcium concentration and the plasma PTH concentration were examined. The test was carried out by single oral administration of the compounds of the present invention and the control compounds to 5 to 6 normal male rats, or male rats with renal failure, respectively As a vehicle group, 0.5% of a methyl cellulose (MC) solution was administered at a dose of 5 ml/kg. As a reference compound, cinacalcet was dissolved in the MC solution and administered at a dose of 3 mg/kg. Each of the compounds of the present invention was dissolved or suspended in the MC solution, and administered at a dose of 1, 3 or 10 mg/kg.
Blood samples were collected from the orbital venous plexus under ether anesthesia before the administration and 2 hours, 4 hours, or 8 hours in some cases, after the administration, and the plasma calcium concentration was measured using Calcium E-Test Wako (manufactured by Wako Pure Chemical Industries), and the plasma PTH concentration was measured using a Rat Intact PTH ELISA Kit (manufactured by Immutopics).

CYP2D6 [2] = molecular target: T2, CYP2D6 (Homo sapiens, UniProt P10635); assay: Human CYP2D6 inhibition test; assay type: biochemical; design: purchased BD Gentest 456217; details: CYP2D6 7.5 pmol/mL; fluorescence substrate AMMC 1.5 μM; 37° C. 30 minutes
T2 sequence (P10635 whole entry): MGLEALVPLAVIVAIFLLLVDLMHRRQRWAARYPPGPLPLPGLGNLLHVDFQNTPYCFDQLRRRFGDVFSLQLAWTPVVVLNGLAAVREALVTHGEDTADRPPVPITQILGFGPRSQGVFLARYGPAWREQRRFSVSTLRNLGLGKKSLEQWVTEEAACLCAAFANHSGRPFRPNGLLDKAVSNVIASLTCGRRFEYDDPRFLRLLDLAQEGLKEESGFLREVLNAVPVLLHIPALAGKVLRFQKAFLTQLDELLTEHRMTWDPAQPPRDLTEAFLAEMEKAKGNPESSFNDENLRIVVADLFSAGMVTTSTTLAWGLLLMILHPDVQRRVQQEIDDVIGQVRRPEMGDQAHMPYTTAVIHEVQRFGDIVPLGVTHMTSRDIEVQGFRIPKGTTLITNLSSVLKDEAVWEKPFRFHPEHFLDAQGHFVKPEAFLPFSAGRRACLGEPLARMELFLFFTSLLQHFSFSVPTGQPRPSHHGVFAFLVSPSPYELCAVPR
Protocol: Test 3. Human CYP2D6 Inhibition Test
Inhibitory activity evaluation for CYP2D6 was carried out by measuring it in accordance, roughly, with a reference (“Drug Metabolism and Disposition”, 2001, vol. 29, p. 1196-1200).
Final concentrations of the reagents in the enzyme reaction solution were respectively set to CYP2D6=7.5 pmol/mL (manufactured by BD Gentest, Catalog No. 456217), reduced type nicotinamide adenine dinucleotide phosphate (NADPH) regeneration system (0.0081 mM nicotinamide adenine dinucleotide phosphate (NADP+), 0.41 mM glucose-6-phosphate, 0.41 mM MgCl2, 0.4 units glucose-6-phosphate dehydrogenase), and a fluorescence substrate AMMC=1.5 μM, 100 mM potassium phosphate buffer (pH 7.4). Each compound was made into a 50% acetonitrile solution and added to the enzyme reaction solution (acetonitrile final concentration 2.5%). The enzyme reaction was carried out at 37° C. for 30 minutes, the reaction was stopped using a stopping liquid (0.1 M tris(hydroxymethyl)aminomethane (Tris-base):acetonitrile=20:80), and the fluorescence intensity was then measured. The concentration showing 50% inhibition (IC50) was calculated from the thus obtained fluorescence intensity, by defining the enzyme activity at a time of no compound addition as 100%.

CYP2D6 [3] = molecular target: T2, CYP2D6; details: reported, Non-Patent Document 4; cited from earlier work

EC50 (human CaSR) [nM] | IC50 (CYP2D6 [2]) [nM] | Structure (SMILES) | inhibition in vivo at 3 mg/kg [1] [%] | activity to inhibit CYP2D6 (in words) (CYP2D6 [3])
7.6 | ≥ 20000 | C[C@@H](NCC1CCN(c2cccc(C(=O)O)c2)CC1c1ccccc1F)c1cccc2ccccc12 (stereo partly drawn) [Example 35, 3-[3-(2-fluorophenyl)-4-({[(1R)-1-(1-naphthyl)ethyl]amino}methyl)piperidin-1-yl]benzoic acid hydrochloride] | 33 | 
13 | ≥ 20000 | C[C@@H](NCC1CCN(c2c(F)cc(C(=O)O)cc2F)CC1c1ccccc1)c1cccc2ccccc12 (stereo partly drawn) [Example 52, 3,5-difluoro-4-[4-({[(1R)-1-(1-naphthyl)ethyl]amino}methyl)-3-phenylpiperidin-1-yl]benzoic acid hydrochloride] | 26 | 
 |  | C[C@@H](NCCCc1cccc(C(F)(F)F)c1)c1cccc2ccccc12 [cinacalcet] |  | strong activity to inhibit CYP2D6
